Measurements from patent US5843755A, “Group of antitumor compounds and method for producing the same” (Ajinomoto Co., Inc., priority 1996, dated 1998).
In brackets after ≈: the same amount, converted by molar mass.

What was measured:
[1] = test system: Mouse colon cancer cells (colon-26); test: Anticancer effect on solid cancer, colon-26 transplanted subcutaneously to CDFI mice; assay type: in vivo; conditions: cisplatin 5 mg/kg on 7th, 11th and 15th day
Protocol: Mouse colon cancer cells (colon-26) subcultured in vivo subcutaneously in a CDFI mouse were excised from the subcutaneous portion of the mouse. The cells were minced and transplanted subcutaneously with a trocar to CDFI mice (female, 4 weeks old) so that the concentration was 10 mg/mouse. The day of the transplantation was designated as 0th day. On 7th day, the tumor size and the body weight were measured, and the mice were classified into groups with n=4. The tumor size was calculated as a tumor weight in accordance with the following arithmetic expression. [formula]
FE399 which was obtained by drying up the acetonitrile solution of FE399-1 isolated by the method described in Example 1 under a reduced precondition was administered to the mice described above in accordance with the following schedule. FE399 was administered intraperitoneally in an administration amount of 0.2 mL/mouse. FE399 was dissolved in dimethyl sulfoxide (DMSO) so that the concentration was 100 mg/ml. The concentration was adjusted with physiological saline containing 5% Tween 80 so that the administration amount was 4 mg/kg or 8 mg/kg. […]
The anticancer effect was evaluated on the basis of the tumor enhancement inhibitory ratio (IR) calculated from the tumor weight. IR was determined in accordance with the following arithmetic expression. […]

[2] = Solubility; assay type: physicochemical
[3] = test system: SW948; test: Growth-inhibiting action on various cells (MTT), SW948; assay type: cell-based; conditions: 72 h, SW948, human colon cancer, 5 × 10^4 cells/ml, 3 days, read-out: IC50 (concentration at which cell proliferation is inhibited by 50%)
Protocol: (§1) The proliferation-inhibiting action of FE399 compounds obtained by purification, on various cells was measured under a condition shown below.
(§2) After that, FE399-P1 or FE399-P2 was added thereto at an appropriate concentration, followed by further cultivation for 3 days. However, as for P388 and K562, the FE399 compound group was added immediately after preparation of cell culture liquids. Each of the cultures was added with 10 μl of a solution of MTT (3-(4,5-dimethyl-2-thiazolyl)-2,5-diphenyl-2H-tetrazolium.Br, 5 mg/ml Dulbecco PBS(-)), followed by cultivation at 37° C. for 4 hours in the carbon dioxide gas incubator. After that, each of the cultures was added with 50 μl of 0.01N hydrochloric acid/20% SDS, and then the absorbance was measured at 570 nm by using a microplate reader (reference wavelength: 630 nm).

[4] = test system: CHO-K1; test: Growth-inhibiting action on various cells (MTT), CHO-K1; assay type: cell-based; conditions: Cricetulus griseus, 72 h, CHO-K1, Chinese hamster ovary fibroblast, 1.5 × 10^4 cells/ml, 3 days, read-out: IC50 (concentration at which cell proliferation is inhibited by 50%)
Protocol: as §1, §2

[5] = test system: P388; test: Growth-inhibiting action on various cells (MTT), P388; assay type: cell-based; conditions: 72 h, P388, mouse leukemia, 2 × 10^4 cells/ml, 3 days, read-out: IC50 (concentration at which cell proliferation is inhibited by 50%)
Protocol: as §1, §2

[6] = test system: K562T; test: Growth-inhibiting action on various cells (MTT), K562T; assay type: cell-based; conditions: 72 h, human leukemia, 4 × 10^4 cells/ml, 3 days, read-out: IC50 (concentration at which cell proliferation is inhibited by 50%)
Protocol: as §1, §2

[7] = test system: Colon26; test: Growth-inhibiting action on various cells (MTT), Colon26; assay type: cell-based; conditions: Colon 26, 72 h, Colon26, mouse colon cancer, 5 × 10^4 cells/ml, 3 days, read-out: IC50 (concentration at which cell proliferation is inhibited by 50%)
Protocol: as §1, §2

[8] = Stability of the tautomers; assay type: physicochemical; conditions: tautomeric equilibrium in organic solvent such as acetonitrile, chloroform, acetic acid

Row | SMILES | IR (tumor enhancement inhibitory ratio) ([1]; 15th day) | IR (tumor enhancement inhibitory ratio) ([1]; 21st day) | Solubility ([2]; in dimethyl sulfoxide, chloroform, ethyl acetate, methanol, and acetonitrile) | Solubility ([2]; in pyridine and acetic acid) | Solubility ([2]; in water) | IC50 [3] [µg/mL] | IC50 [4] [µg/mL] | IC50 [5] [µg/mL] | IC50 [6] [µg/mL] | IC50 [7] [µg/mL] | Stability among the group of the compounds [8]
1 | N.N.[Cl][Pt][Cl] [cisplatin] | 63 | 73 |  |  |  |  |  |  |  |  | 
2 | CCCC1CCCCCCCC(=O)NC2CSSCC(NC2=O)C(=O)O1 (centres unmarked) [FE399-P1] |  |  | soluble | readily soluble | scarcely soluble | 0.15 (≈ 0.373 µM) | 0.3 (≈ 0.745 µM) | 0.36 (≈ 0.894 µM) | 0.31 (≈ 0.77 µM) | 0.4 (≈ 0.994 µM) | relatively stable
